The source made the active and inactive calls. The rule behind the calls is not given here.
How the values were obtained:
Type in all cases: functional, cell-based
[1] = molecular target: T1, C-C chemokine receptor type 5 (Homo sapiens, UniProt P51681); test: Antagonist activity at CCR5 receptor expressed in CHO cells assessed as inhibition of RANTES-induced […]GTPgammaS binding at 10 uM
Target sequence in this assay (P51681 whole entry, looked up): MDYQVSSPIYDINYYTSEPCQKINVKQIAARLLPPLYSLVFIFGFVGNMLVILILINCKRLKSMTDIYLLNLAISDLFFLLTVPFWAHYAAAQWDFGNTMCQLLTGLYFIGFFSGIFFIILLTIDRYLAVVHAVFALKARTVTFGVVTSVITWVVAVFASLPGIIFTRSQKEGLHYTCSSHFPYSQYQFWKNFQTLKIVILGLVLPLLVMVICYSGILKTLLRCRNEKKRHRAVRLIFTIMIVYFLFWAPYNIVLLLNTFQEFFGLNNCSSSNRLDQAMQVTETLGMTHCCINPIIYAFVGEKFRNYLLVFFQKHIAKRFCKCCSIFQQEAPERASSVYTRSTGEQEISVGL

[2] = molecular target: T1, C-C chemokine receptor type 5; test: Antagonist activity at CCR5 receptor expressed in CHO cells assessed as inhibition of RANTES-induced […]GTPgammaS binding at 300 nM
Target sequence in this assay (P51681 whole entry, looked up): as above

[3] = molecular target: T1, C-C chemokine receptor type 5; test: Antagonist activity at CCR5 receptor expressed in CHO cells assessed as inhibition of RANTES-induced […]GTPgammaS binding

Cc1nc2cccnc2n1[C@@H]1C[C@H]2CC[C@@H](C1)N2CC[C@H](CO)c1ccccc1
inhibition [1]: inactive

Cc1nc2cccnc2n1[C@@H]1C[C@H]2CC[C@@H](C1)N2CC[C@H](C(=O)OCc1ccc(F)cc1)c1ccccc1
inhibition [2]: 19%

Cc1nc2cccnc2n1[C@H]1C[C@H]2CC[C@@H](C1)N2CC[C@H](C(=O)N1C(=O)OC[C@H]1Cc1ccccc1)c1ccccc1 (stereo in doubt; 1a)
inhibition [2]: 30%

COC(=O)[C@@H](CCN1[C@@H]2CC[C@H]1C[C@@H](n1c(C)nc3cccnc31)C2)c1ccccc1
IC50 [3]: 112 nM
inhibition [2]: 22%

Cc1nc2cccnc2n1[C@@H]1C[C@H]2CC[C@@H](C1)N2CC[C@H](COCc1ccc(F)cc1)c1ccccc1
inhibition [2]: 42%

Cc1nc2cccnc2n1[C@H]1C[C@H]2CC[C@@H](C1)N2CC[C@H](C(=O)NCc1ccc(F)cc1)c1ccccc1
IC50 [3]: 14.4 nM
inhibition [2]: 30%

O=C(NCc1ccc(F)cc1)[C@@H](CCN1[C@@H]2CC[C@H]1C[C@H](n1nnc3cccnc31)C2)c1ccccc1
inhibition [2]: 1%

COC(=O)[C@@H](CCN1[C@@H]2CC[C@H]1C[C@H](n1nnc3cccnc31)C2)c1ccccc1
C50 [3]: > 10 µM

Cc1nc2cccnc2n1[C@H]1C[C@H]2CC[C@@H](C1)N2CC[C@H](C(=O)N1C(=O)OC[C@H]1Cc1ccccc1)c1ccccc1 (stereo in doubt; 1b)
inhibition [2]: 10%
